Experimental findings from ChEMBL document CHEMBL1201862, “PubChem BioAssay data set” (2004) are described below.

Active and inactive are the calls of the source.

The nature of assay [1]: off-target signal loss in HeLa-CEM21 co-culture – HeLa F-luc CTL cells, cherry-picked, counter-screen for HIV-1 Env fusion inhibitor project, dose response (AID 652040).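 Note: potency for signal decrease marking cytotoxic or nonspecific inhibition.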 Type of assay: functional, cell-based. Background: The purpose of a counterscreen is to sort out artefacts and off-target activity.
In assay [2] the target is SWI/SNF-related matrix-associated actin-dependent regulator of chromatin subfamily A member 2 (Homo sapiens, UniProt P51531). Briefly: Luminescence-based cell-based high throughput dose response assay to identify activators of the function of SWI/SNF related, matrix associated, actin dependent regulator of chromatin, subfamily a, member 2 (SMARCA2, BRM). It is filed as functional.

Assay [3] is described as follows: Counterscreen for activators of the function of SWI/SNF related, matrix associated, actin dependent regulator of chromatin, subfamily a, member 2 (SMARCA2, BRM): Luminescence-based cell-based high throughput dose response assay to identify non-selective compounds using the VP16 reporter assay. It is filed as functional.
Assay [4] concerns the target Cyclin-dependent kinase 5/CDK5 activator 1 (Homo sapiens, UniProt Q00535). Nature of the assay: CDK5/p35 kinase inhibitors, dose response, biochemical, cherry-picked samples, set 2 (AID 504545).
The nature of assay [5]: ZM109 Env clade C HIV-1 fusion inhibitors, dose response, HeLa effector, CEM target cells, luciferase, cherry-pick (AID 652058). It is filed as functional, cell-based.
Assay [6] can be described thus: CEM21 lymphoblast cell cytotoxicity, dose response, cytotoxicity control for viral fusion inhibitor project, CellTiter-Glo luminescence, cherry-picked (AID 652042).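 Note: potency for signal decrease meaning cytotoxicity.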 Type of assay: functional, cell-based. A general note: ATP-based viability assays read luminescence as a measure of living cells.
Assay [7] can be described thus: inhibitors of HIV Env-driven cell fusion, dose response, cherry-pick (AID 652057). It is filed as functional, cell-based.
Assay [8] concerns SN12K1. Briefly: cells. It is filed as functional. As to conditions: Homo sapiens.
Assay [9] in a line: inhibitors of clade B AD8 Env fusion, dose response, cell-based, cherry-pick (AID 652062).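 Note: luciferase signal from cell-cell fusion driven by HIV-1 clade B AD8 Env; potency is for inhibitors of fusion seen as a drop in luminescence.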 Type of assay: functional.
Assay [10] has as its target Protein Rev (Human immunodeficiency virus type 1 group M subtype B (isolate HXB2)(HIV-1), UniProt P04618). Briefly: inhibitors of Rev binding to RRE RNA, dose response, biochemical, fluorescence polarization, HIV-1 (AID 434976). Details: species or system Human immunodeficiency virus 1. A general note: Polarisation of emitted light reports the rotation of a fluorescent probe.

The target in assay [11] is Female germline-specific tumor suppressor gld-1 (Caenorhabditis elegans, UniProt Q17339). Briefly: inhibitors of GLD-1 binding to TGE RNA, dose response, biochemical, fluorescence polarization, C. elegans (AID 2802).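 Note: fluorescence polarization of labeled TGE RNA bound by purified gld-1 protein.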
Assay [12] deals with T1, Alkaline phosphatase, tissue-nonspecific isozyme (Homo sapiens, UniProt P05186).
T1 sequence (P05186 whole entry): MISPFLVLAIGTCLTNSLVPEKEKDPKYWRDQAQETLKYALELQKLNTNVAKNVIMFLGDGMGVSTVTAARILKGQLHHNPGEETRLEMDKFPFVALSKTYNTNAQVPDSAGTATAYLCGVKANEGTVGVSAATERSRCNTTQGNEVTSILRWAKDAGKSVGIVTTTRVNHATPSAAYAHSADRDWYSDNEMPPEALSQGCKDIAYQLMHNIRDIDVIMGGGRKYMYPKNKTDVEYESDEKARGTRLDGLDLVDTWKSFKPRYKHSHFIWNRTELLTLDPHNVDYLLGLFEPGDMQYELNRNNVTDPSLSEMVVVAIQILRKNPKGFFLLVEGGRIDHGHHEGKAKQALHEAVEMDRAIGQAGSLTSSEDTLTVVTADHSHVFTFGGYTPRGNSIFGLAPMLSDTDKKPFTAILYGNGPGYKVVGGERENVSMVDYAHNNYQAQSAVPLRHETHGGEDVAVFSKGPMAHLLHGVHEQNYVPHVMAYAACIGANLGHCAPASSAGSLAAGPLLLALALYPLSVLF

The target of assay [13] is Major prion protein (Homo sapiens, UniProt P04156). Type of assay: functional, cell-based.
The nature of assay [14]: cells.
For assay [15], the target named is Cytochrome P450 2C19 (Homo sapiens, UniProt P33261). Nature of the assay: Cytochrome panel assay with activity outcomes. Panel member name: p450-cyp2c19 Compounds with AC50 equal or less than 10 uM are considered active. Type of assay: functional. As to conditions: read-out: AC50.
Assay [16] concerns the target Peroxisome proliferator-activated receptor gamma/Nuclear receptor corepressor 2 (Homo sapiens, UniProt P37231+Q9Y618). Type of assay: functional.
Assay [17] concerns the target Photoreceptor-specific nuclear receptor (Homo sapiens, UniProt Q9Y5X4). It is filed as functional.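 Note: potency for compounds that break the NR2E3 corepressor complex and count as activators.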
For assay [18], the target named is Lysosomal acid glucosylceramidase (Homo sapiens, UniProt P04062). Briefly: Dose response cell-based high throughput screening assay to identify enhancers of beta-glucosidase activity. [Related pubchem assays: 784 ]. Type of assay: functional.
Assay [19] concerns the target X-box-binding protein 1 (Homo sapiens, UniProt P17861). It is filed as functional, Cricetulus griseus.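 Note: confirmatory dose-response counter-screen serving a CHOP assay.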
The target of assay [20] is Cytochrome P450 3A4 (Homo sapiens, UniProt P08684). As to conditions: Potency.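 Note: confirmatory qHTS run detecting inhibitors and substrates of CYP3A4.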
For assay [21], the target named is Cytochrome P450 2C9 (Homo sapiens, UniProt P11712). As to conditions: Potency.
In assay [22] the target is T2, Voltage-gated N-type calcium channel alpha-1B subunit/Amyloid beta A4 precursor protein-binding family A member 1 (Homo sapiens, UniProt Q00975+Q02410). Nature of the assay: disruptors of Mint-PDZ/N-type channel peptide interaction – biochemical, HTRF, SAR follow-up (AID 2489). Type of assay: functional.
In assay [23] the target is T2, Voltage-gated N-type calcium channel alpha-1B subunit/Amyloid beta A4 precursor protein-binding family A member 1. Briefly: disruptors of Mint-PDZ/N-type channel peptide interaction – biochemical, HTRF, set 2, SAR follow-up (AID 434980). It is filed as functional.
The target of assay [24] is Heat shock protein HSP 90-alpha (Homo sapiens, UniProt P07900). Type of assay: functional, organism-based.
In assay [25] the test system is Vero. Nature of the assay: cells. It is filed as functional. The conditions noted are these: Chlorocebus sabaeus.
Assay [26] addresses C-C chemokine receptor type 6 (Homo sapiens, UniProt P51684). Briefly: CCR6 receptor antagonists, dose response, cell-based, luminescent beta-arrestin readout (AID 504728). Type of assay: functional.
Assay [27] has as its target Beta-galactosidase (Escherichia coli, UniProt Q8VNN2). Nature of the assay: beta-galactosidase enzyme inhibitors and activators, dose response, artefact control for CCR6 antagonist project, biochemical, E. coli enzyme, set 3 (AID 504712). Type of assay: functional.
Assay [28] has as its system INS1. Briefly: beta cell apoptosis inhibitors, cytokine rescue, dose response, luminescence, retest (AID 449756).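 Note: cell death triggered by IL-1 beta plus TNF-alpha plus IFN-gamma mixture; protective hits raise ATP signal compared with cytokine alone wells.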 As to conditions: Rattus norvegicus. Type of assay: functional, cell-based.
A short description of assay [29]: Luminescence Cell-Based Dose Retest to Confirm Inhibitors of Cancer Stem Cells. [Related pubchem assays (depositor defined):AID2717, AID2721]. As to conditions: Homo sapiens. It is filed as functional.
Assay [30] deals with T3, Ubiquitin-conjugating enzyme E2 N (Homo sapiens, UniProt P61088).
T3 sequence (P61088 whole entry): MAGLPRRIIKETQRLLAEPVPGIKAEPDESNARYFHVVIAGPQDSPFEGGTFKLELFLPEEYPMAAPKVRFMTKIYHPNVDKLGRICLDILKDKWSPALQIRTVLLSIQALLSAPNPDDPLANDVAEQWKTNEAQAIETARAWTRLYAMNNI
It is filed as functional.

For assay [31], the target named is Neurotensin receptor type 1 (Homo sapiens, UniProt P30989). Type of assay: functional.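 Note: Image-based confirmatory dose-response assay measuring agonist activity at NTR1; NTR1-expressing U2OS osteosarcoma cells imaged for beta-arrestin GFP spot formation; agonist potency where compounds increase beta-arrestin recruitment.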
Assay [32] has as its target Melanin-concentrating hormone receptor 1 (Homo sapiens, UniProt Q99705). Nature of the assay: Late-stage fluorescence-based counterscreen for antagonists of the G-protein coupled receptor 7 (GPR7): cell-based dose response assay to identify antagonists of the melanin-concentrating hormone receptor 1 (MCHR1). [Related pubchem assays (depositor defined):AID1861, AID1880, AID1952, AID2148, AID2251, AID2257, AID485339]. Type of assay: functional.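 Note: stimulated with 30 nM MCH peptide agonist.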

In assay [33] the target is Wee1-like protein kinase (Homo sapiens, UniProt P30291). Nature of the assay: G2/M cell cycle arrest in HeLa, late-stage follow-up, mechanism study for Wee1 degradation inhibitor project, FACS, panel member Wee1 Degradation (AID 2088).
Assay [34] concerns the target G2/mitotic-specific cyclin-B1 (Homo sapiens, UniProt P14635). Briefly: G2/M cell cycle arrest in HeLa, late-stage follow-up, mechanism study for Wee1 degradation inhibitor project, FACS, panel member Cyclin B Degradation (AID 2088).

Regarding `N#Cc1cn(C2OC(CO)C(O)C2O)c2ncnc(N)c12` (centres undefined), the AC50 – broadly, the midpoint of the concentration-response curve, whichever way the signal moves – in assay [1] was 1.39 µM (active); in assay [4], 5.59 µM (active); in [5] it was < 0.26 µM (active); in assay [6], < 0.26 µM (active); in assay [7], < 0.26 µM (active); in assay [9], 0.621 µM (active). Also, the EC50 in [2] and in [3] was > 91.2 µM (inactive) each time. In addition, the concentration for 50% growth inhibition (GI50) (as a rule, the concentration that inhibits growth by half) in assay [8] is 0.0425 µM (active).

With `Nc1c(-c2cccc([N+](=O)[O-])c2)nc2ccccn12`, the results for the half-inhibitory concentration (IC50) in assay [10] and in assay [11] were > 75.5 µM (not active) and 7.64 µM (active), respectively.

Take `CCOC1Cc2ccccc2N(C(N)=O)c2ccccc21` (centres undefined): the EC50 (as a rule, the concentration needed to bring the measured effect to its halfway point) in [12] is reported as > 100 µM (not active).

Turning to `CCc1c(C(=O)O)[nH]c2ccc(Br)cc12`, the 50% inhibitory concentration (IC50) (commonly the concentration that inhibits the measured activity by half) in assay [13] is 5.95 µM (active); in [14] it was > 138 µM (inactive); in assay [16], 7.33 µM (active); in assay [17], 6.41 µM (active). The AC50 in assay [15] is 11.2 µM (inconclusive).

With `CC(C)Oc1cccc(C(=O)Nc2ccccc2N2CCOCC2)c1`, in assay [18], the EC50 is given as > 50 µM (not active).

Take `CC(C)(C)c1ccc(NC(=O)Nc2ccc(F)cc2)cc1`: in assay [19], the “Absolute IC50 (XBP1)” value came to 10 µM.

Take `CCCCCCCC#Cc1ccccc1C(NC(=O)OC)C(C(=O)OC)C(=O)OC` (centres undefined): the concentration at half-maximal activity (AC50) is 3.16 µM (inconclusive) in assay [20] and 7.94 µM (inconclusive) in [21].

For the compound `O=C(NCCc1ccccn1)c1cc(-c2ccco2)nc2ccccc12`, the IC50 in assay [22] and in assay [23] was > 56.8 µM (inactive) throughout.

As to `O=[N+]([O-])c1cccc(C=NNc2ccc3ccccc3n2)c1O`, the AC50 in assay [24] is 2.76 µM (active). Besides, the half-maximal cytotoxic concentration (CC50) (usually the concentration giving 50% cytotoxicity) in assay [25] was 1.44 µM (active). Moreover, the IC50 in assay [26] and in [27] was > 66.6 µM (inactive) in each case.

Take `CC(C)C[C@H]1CN=C(Nc2ccccc2)N1CC1CCC(C(C)(C)C)CC1` (some centres undefined): the AC50 was 6.54 µM (active) in assay [28] and 5.02 µM (active) in assay [29]. Also, the IC50 in assay [30] was > 20 µM (inactive). Moreover, in assay [31], the EC50 was 15.7 µM (active).

Take `Cc1ccc(-n2ncc(Cl)c(Oc3ccccc3)c2=O)cc1`: the IC50 in [32] is 13.7 µM (inactive).

Regarding `CC(C)c1ccc(NC(=O)CCCOc2cc(=O)n(C)c3ccccc23)cc1`, the EC50 in assay [33] and in assay [34] was > 49.7 µM (inactive) each time.
